Results from US10709707B2, “Methods of treating ocular conditions” (Oyster Point Pharma, Inc., priority 2016, dated 2020).
Like-named read-outs stand apart in the source and are kept apart here.

Key:
[1] = 2-week and 13-week repeated dose TK studies, rat; format: in vivo
Procedure: In 2-week and 13-week repeated dose TK studies in rat, animals were dosed orally at 30, 100 or 200 mg/kg/day (2-week study) or at 30, 100 or 300 mg/kg/day (13-week study). […] In the 2-week study, there was a 1.2 to 2.2-fold increase in exposure from Day 1 to 15. In the 13-week study, there was a general increase from Day 1 to 29 and roughly equivalent exposure from Day 29 to 91.

[2] = system: blood pressure, heart rate, ECG; assay: Cardiovascular safety, guinea pig iv; format: in vivo
[3] = Cardiovascular safety, guinea pig iv; format: in vivo; conditions: guinea pig, in vivo; intravenous
muscle receptor (α1β1δγ) = target: T1, muscle receptor (α1β1δγ) (Homo sapiens, UniProt P02708+P07510+Q07001); assay: Receptor binding muscle receptor, TE-671 membranes
T1 construct: endogenous in cells; host or cells: TE671 (TE-671) cells / membranes (per the earlier reading)
T1 sequence (P11230 24-501): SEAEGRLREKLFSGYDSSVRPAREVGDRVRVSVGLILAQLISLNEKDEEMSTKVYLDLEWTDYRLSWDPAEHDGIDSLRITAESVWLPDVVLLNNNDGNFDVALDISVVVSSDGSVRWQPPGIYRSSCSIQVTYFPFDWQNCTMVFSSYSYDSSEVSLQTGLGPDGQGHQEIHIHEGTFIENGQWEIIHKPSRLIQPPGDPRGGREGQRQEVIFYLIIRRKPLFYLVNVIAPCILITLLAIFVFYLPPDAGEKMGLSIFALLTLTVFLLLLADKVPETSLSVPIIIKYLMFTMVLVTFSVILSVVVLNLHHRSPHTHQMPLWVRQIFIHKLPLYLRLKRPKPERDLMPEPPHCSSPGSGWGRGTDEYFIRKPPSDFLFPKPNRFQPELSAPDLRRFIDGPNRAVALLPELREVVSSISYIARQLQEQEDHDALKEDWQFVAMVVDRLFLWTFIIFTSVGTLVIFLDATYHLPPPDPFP
T1 sequence (P02708 21-457): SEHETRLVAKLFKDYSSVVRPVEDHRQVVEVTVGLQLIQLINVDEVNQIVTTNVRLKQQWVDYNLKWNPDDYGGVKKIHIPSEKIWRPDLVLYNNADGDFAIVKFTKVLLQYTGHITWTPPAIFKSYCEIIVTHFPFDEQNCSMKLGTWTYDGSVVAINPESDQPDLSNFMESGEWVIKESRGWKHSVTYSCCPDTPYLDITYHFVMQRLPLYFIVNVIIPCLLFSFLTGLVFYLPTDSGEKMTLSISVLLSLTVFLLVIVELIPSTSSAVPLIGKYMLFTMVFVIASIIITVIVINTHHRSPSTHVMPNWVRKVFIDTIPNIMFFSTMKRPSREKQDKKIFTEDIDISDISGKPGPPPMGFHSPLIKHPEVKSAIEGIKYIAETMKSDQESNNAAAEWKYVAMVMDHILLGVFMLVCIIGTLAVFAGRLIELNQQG
T1 sequence (Q07001 22-517): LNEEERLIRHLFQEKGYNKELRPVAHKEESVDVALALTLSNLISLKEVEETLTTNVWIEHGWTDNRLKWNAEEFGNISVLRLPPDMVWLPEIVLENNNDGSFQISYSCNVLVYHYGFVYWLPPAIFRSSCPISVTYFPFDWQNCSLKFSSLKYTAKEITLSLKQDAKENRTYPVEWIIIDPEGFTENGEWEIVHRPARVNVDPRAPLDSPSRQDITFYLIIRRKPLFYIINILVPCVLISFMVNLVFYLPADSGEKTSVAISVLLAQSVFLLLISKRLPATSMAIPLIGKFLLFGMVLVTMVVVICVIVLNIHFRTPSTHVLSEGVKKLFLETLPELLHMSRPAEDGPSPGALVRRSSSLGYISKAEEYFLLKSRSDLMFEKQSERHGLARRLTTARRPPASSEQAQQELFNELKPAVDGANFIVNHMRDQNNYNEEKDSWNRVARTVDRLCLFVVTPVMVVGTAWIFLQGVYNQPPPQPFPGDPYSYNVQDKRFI
T1 sequence (P07510 23-517): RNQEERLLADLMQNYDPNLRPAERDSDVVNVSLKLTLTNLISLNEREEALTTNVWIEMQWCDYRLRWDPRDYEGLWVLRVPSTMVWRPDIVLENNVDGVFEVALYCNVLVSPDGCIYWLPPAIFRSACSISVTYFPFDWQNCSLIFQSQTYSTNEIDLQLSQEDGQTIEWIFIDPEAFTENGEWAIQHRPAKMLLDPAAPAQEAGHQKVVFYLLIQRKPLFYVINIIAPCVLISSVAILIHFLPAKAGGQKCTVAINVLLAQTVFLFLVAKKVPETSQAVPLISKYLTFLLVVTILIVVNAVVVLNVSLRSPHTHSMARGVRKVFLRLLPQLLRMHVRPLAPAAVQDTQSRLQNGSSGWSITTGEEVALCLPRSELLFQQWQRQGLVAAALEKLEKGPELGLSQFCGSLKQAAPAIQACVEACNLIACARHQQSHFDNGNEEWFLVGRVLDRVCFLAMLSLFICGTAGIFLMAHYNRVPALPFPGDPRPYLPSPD

[4] = Stability study of drug substance; format: physicochemical
Procedure: A previous cGMP lot of Compound 1 was manufactured.
There was a slight decrease in assay value below the 98% specification at 6 month 40° C./75% RH and 9 month 30° C./65% RH. However, based on the minimal change at accelerated conditions and the stability of the real time data, the drug substance is currently considered to be stable for at least 36 months.

[5] = Single dose pharmacokinetics, rat; format: in vivo, Sprague-Dawley rat; conditions: for AUC(0-t): read-out: AUC0-1
human α3β2 = target: T2, human α3β2 (Homo sapiens, UniProt P17787+P32297); assay: Receptor binding α3β2, recombinant human receptors in HEK cells; conditions: [3H]-S-nicotine, human α3β2 expressed in HEK cells
T2 construct: expressed in transfected cells
T2 sequence (P32297 32-505): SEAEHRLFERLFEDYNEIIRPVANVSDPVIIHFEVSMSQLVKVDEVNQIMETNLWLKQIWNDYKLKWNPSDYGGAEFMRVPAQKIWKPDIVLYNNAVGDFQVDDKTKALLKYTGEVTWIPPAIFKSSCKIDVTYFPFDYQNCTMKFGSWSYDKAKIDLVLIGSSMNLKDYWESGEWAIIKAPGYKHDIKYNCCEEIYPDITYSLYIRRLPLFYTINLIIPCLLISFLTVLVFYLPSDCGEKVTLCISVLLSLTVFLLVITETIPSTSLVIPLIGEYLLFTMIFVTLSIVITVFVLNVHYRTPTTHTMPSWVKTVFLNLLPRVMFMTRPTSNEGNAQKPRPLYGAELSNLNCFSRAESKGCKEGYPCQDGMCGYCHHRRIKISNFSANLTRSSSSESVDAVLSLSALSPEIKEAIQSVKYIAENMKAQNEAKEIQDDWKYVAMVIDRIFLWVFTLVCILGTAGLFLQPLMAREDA
T2 sequence (P17787 26-502): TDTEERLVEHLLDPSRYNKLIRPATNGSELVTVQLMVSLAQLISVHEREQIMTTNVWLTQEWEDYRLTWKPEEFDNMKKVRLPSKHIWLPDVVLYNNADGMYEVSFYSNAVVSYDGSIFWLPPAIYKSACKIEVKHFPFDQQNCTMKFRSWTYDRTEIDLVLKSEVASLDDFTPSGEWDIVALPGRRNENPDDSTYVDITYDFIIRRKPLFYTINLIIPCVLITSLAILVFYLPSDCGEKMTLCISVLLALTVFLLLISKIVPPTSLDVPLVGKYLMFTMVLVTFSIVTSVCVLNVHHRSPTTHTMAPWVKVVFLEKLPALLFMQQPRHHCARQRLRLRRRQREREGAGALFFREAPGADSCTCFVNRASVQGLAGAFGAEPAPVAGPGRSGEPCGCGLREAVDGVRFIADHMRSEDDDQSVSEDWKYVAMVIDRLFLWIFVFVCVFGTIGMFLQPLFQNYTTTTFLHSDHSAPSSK

a6/a3b2b3 = a6/a3b2b3 (Homo sapiens, UniProt P17787+P32297+Q15825); assay: Receptor binding a6/a3b2b3
Chain of a6/a3b2b3 (Q15825+P32297 fused with the stated changes): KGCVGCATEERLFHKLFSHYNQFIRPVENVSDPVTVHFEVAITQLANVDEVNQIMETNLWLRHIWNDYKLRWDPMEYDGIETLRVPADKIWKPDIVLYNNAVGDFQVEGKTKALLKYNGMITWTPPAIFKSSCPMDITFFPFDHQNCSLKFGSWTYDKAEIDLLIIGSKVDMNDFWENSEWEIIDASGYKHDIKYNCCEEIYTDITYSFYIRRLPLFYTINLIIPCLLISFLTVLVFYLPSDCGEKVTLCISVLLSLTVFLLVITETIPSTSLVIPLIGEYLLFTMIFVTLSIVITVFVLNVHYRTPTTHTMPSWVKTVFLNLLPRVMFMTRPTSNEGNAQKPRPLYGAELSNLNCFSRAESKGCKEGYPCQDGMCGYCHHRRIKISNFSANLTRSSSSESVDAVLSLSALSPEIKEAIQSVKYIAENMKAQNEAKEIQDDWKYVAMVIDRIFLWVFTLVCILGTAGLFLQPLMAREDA
Chain of a6/a3b2b3 (P17787 26-502): as the sequence (P17787 26-502) above
Chain of a6/a3b2b3 (Q05901 25-458 partner limits assumed): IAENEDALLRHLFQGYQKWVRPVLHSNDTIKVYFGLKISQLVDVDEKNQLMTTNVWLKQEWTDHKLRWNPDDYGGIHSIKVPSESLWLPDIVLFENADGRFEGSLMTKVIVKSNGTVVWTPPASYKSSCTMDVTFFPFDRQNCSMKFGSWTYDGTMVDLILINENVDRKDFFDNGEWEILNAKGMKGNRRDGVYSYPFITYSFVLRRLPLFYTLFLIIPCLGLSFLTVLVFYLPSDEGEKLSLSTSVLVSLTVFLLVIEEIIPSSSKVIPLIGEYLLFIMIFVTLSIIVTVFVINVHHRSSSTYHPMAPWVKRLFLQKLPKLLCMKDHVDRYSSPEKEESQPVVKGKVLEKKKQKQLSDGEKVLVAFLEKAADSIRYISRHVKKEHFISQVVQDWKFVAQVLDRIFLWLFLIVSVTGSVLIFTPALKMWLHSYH

[6] = target: remaining muscarinic subtypes; assay: Follow-up dose response binding assay (CEREP)
[7] = clinical studies with oral Compound 1; format: in vivo, human
Procedure: The oral form of Compound 1-A, Compound 1, has been studied in several clinical trials. A total of 108 human subjects have received Compound 1: 69 healthy volunteers in Phase 1 studies, 23 subjects in a Phase 1b gastroparesis study, and 16 subjects with constipation predominant irritable bowel syndrome (IBS-C) in a Phase 2a study. Subjects were exposed to doses of Compound 1 ranging from 5 mg through and including 200 mg.

[8] = system: muscarinic (non-selective) sites; assay: In vitro binding (off-target receptors) at 10 μM; conditions: hemigalactarate salt
[9] = Sprague-Dawley, plasma, S-D rat, 30 mg/kg [14C]-Compound 1, oral
[10] = male, Sprague-Dawley, plasma, S-D rat, 0.3 mg/kg Compound 1, oral
[11] = male, Sprague-Dawley, plasma, S-D rat, 3 mg/kg Compound 1, oral

For `C(=C\[C@H]1CCNC1)/c1cncnc1` [Compound 1, (R)-5-((E)-2-pyrrolidin-3-ylvinyl)pyrimidine], the “exposure parameters (Cmax and AUC0-24) vs dose” value ([1]; Days 1 and 15 (2-week), Days 1, 29 and 91 (13-week)) was “increased roughly in proportion to dose”, the Tmax ([1]; both sexes, rat, plasma, oral 30-300 mg/kg/day, 2-week and 13-week studies) was 0.5 to 2 h and the “exposure in females compared with males” value ([1]; both studies) was “generally higher”. For the same compound, the “effects on QTc” value ([2]; 1 mg/kg iv) was “doses up to 0.3 mg/kg, mild and reversible”, the lethality ([2]; 10 mg/kg iv) was 10 mg/kg was lethal and the “peak increase in heart rate” value ([2]; 1, 3, and 10 mg/kg iv) was “rate was 41 beats per minute”. The “peak increase in systolic blood pressure” value ([2]; 1, 3, and 10 mg/kg iv) was 58 mmHg; and the peak increase in heart, the “time in which effects resolved” value ([2]; 1 and 3 mg/kg iv) was 3 min and the “effects on QTc/ECG” value ([2]; 3 and 10 mg/kg iv) was “effects on QTc at 1 mg/kg, and severe”. For the same compound, the “effects on ECGs” value ([2]; doses up to 0.3 mg/kg iv) was “Compound 1 caused no effects on ECGs at”, the MTD [3] was 0.3 mg/kg and the Ki (muscle receptor (α1β1δγ)) was 36000 nM. For the same compound, the assay value ([4]; 6 month, 40° C./75% RH) was < 98%, the assay value ([4]; 9 month, 30° C./65% RH) was < 98% and the “Assay (HPLC-UV)” value ([4]; 25° C./60% RH, 1 M) was 102.4%. For the same compound, the “Related Substances, RRT = 0.26” value ([4]; 25° C./60% RH, 1 M) was 0.09 % w/w, the “Total Related Substances” value ([4]; 25° C./60% RH, 1 M) was 0.09% and the “Water Content (Karl Fischer)” value ([4]; 25° C./60% RH, 1 M) was 12.10 % w/w. For the same compound, the “Assay (HPLC-UV)” value ([4]; 25° C./60% RH, 3 M) was 100.2%, the “Related Substances, RRT = 0.26” value ([4]; 25° C./60% RH, 3 M) was 0.09 % w/w and the “Total Related Substances” value ([4]; 25° C./60% RH, 3 M) was 0.09%. The “Water Content (Karl Fischer)” value ([4]; 25° C./60% RH, 3 M) was 12.25 % w/w, the “Assay (HPLC-UV)” value ([4]; 25° C./60% RH, 6 M) was 98.9% and the “Total Related Substances” value ([4]; 25° C./60% RH, 6 M) was 0.05%. For the same compound, the “Water Content (Karl Fischer)” value ([4]; 25° C./60% RH, 6 M) was 12.04 % w/w, the “Assay (HPLC-UV)” value ([4]; 25° C./60% RH, 9 M) was 99.7% and the “Related Substances, RRT = 0.26” value ([4]; 25° C./60% RH, 9 M) was 0.09 % w/w. For the same compound, the “Total Related Substances” value ([4]; 25° C./60% RH, 9 M) was 0.12%, the “Water Content (Karl Fischer)” value ([4]; 25° C./60% RH, 9 M) was 11.52 % w/w and the “Assay (HPLC-UV)” value ([4]; 25° C./60% RH, 12 M) was 101.2%. For the same compound, the “Chiral Purity” value ([4]; 25° C./60% RH, 12 M) was 100 % ee, the “Related Substances, RRT = 0.18” value ([4]; 25° C./60% RH, 12 M) was 0.10 % w/w and the “Related Substances, RRT = 0.88” value ([4]; 25° C./60% RH, 12 M) was 0.05 % w/w. For the same compound, the “Total Related Substances” value ([4]; 25° C./60% RH, 12 M) was 0.16%, the “Water Content (Karl Fischer)” value ([4]; 25° C./60% RH, 12 M) was 11.52 % w/w and the “Assay (HPLC-UV)” value ([4]; 25° C./60% RH, 18 M) was 100.4%. For the same compound, the “Related Substances, RRT = 0.26” value ([4]; 25° C./60% RH, 18 M) was 0.07 % w/w, the “Total Related Substances” value ([4]; 25° C./60% RH, 18 M) was 0.07% and the “Water Content (Karl Fischer)” value ([4]; 25° C./60% RH, 18 M) was 11.50 % w/w. For the same compound, the “Assay (HPLC-UV)” value ([4]; 25° C./60% RH, 24 M) was 100.0%, the “Chiral Purity” value ([4]; 25° C./60% RH, 24 M) was 100 % ee and the “Related Substances, RRT = 0.26” value ([4]; 25° C./60% RH, 24 M) was 0.05 % w/w. The “Total Related Substances” value ([4]; 25° C./60% RH, 24 M) was 0.05%, the “Water Content (Karl Fischer)” value ([4]; 25° C./60% RH, 24 M) was 11.42 % w/w and the “Assay (HPLC-UV)” value ([4]; 25° C./60% RH, 36 M) was 99.7%. The “Chiral Purity” value ([4]; 25° C./60% RH, 36 M) was 100 % ee, the “Related Substances, RRT = 0.26” value ([4]; 25° C./60% RH, 36 M) was 0.04 % w/w and the “Total Related Substances” value ([4]; 25° C./60% RH, 36 M) was 0.04%. The “Water Content (Karl Fischer)” value ([4]; 25° C./60% RH, 36 M) was 11.53 % w/w, the “Assay (HPLC-UV)” value ([4]; 25° C./60% RH, Initial) was 100.9% and the “Chiral Purity” value ([4]; 25° C./60% RH, Initial) was 100 % ee. The “Related Substances, RRT = 0.26” value ([4]; 25° C./60% RH, Initial) was 0.05 % w/w, the “Total Related Substances” value ([4]; 25° C./60% RH, Initial) was 0.05% and the “Water Content (Karl Fischer)” value ([4]; 25° C./60% RH, Initial) was 11.36 % w/w. The “time for which drug substance is considered stable” value ([4]; real time 25° C./60% RH data) was “at least 36 months”, the Cmax [5, 9] was 1710 ng/mL and the Tmax [5, 9] was 0.25 h. The AUC(0-t) ([5]; Sprague-Dawley, plasma, S-D rat, 30 mg/kg [14C]-Compound 1, oral, t = 168 h) was 3310 ng·h/mL, the half-life ([5]; Sprague-Dawley, plasma, S-D rat, 30 mg/kg [14C]-Compound 1, oral, read-out: t1/2 (converted)) was 1.2 h and the “Cmax and AUC0-24 vs dose” value ([5]; male rats, 3 mg/kg group vs 0.3 mg/kg, oral) was “higher than dose-proportional”. For the same compound, the Cmax [5, 10] was 6.51 ng/mL, the Tmax [5, 10] was 0.5 h and the AUC(0-t) ([5]; male, Sprague-Dawley, plasma, S-D rat, 0.3 mg/kg Compound 1, oral, t = 25 h) was 13.5 ng·h/mL. It also gave a half-life ([5]; male, Sprague-Dawley, plasma, S-D rat, 0.3 mg/kg Compound 1, oral, read-out: t1/2 (converted)) of 1.4 h, a Cmax [5, 11] of 169 ng/mL and a Tmax [5, 11] of 0.167 h. For the same compound, the AUC(0-t) ([5]; male, Sprague-Dawley, plasma, S-D rat, 3 mg/kg Compound 1, oral, t = 25 h) was 211 ng·h/mL, the half-life ([5]; male, Sprague-Dawley, plasma, S-D rat, 3 mg/kg Compound 1, oral, read-out: t1/2 (converted)) was 1.4 h and the Kp ([5]; male, Sprague-Dawley, rat, brain, oral, 0.3 or 3 mg/kg orally, read-out: brain exposure as share of plasma exposure) was ~0.15. The half-life ([5]; male, Sprague-Dawley, rat, plasma and brain, po, 0.3 or 3 mg/kg orally, read-out: half-life (plasma and brain concentrations) (converted)) was 1.4 h, the Ki (human α3β2) was 27 nM and the Ki (a6/a3b2b3) was 240 nM. The Ki [6] was > 10000 nM, the “changes in physical exam, blood or urine laboratory measurements or ECG measurements” value ([7]; 108 human subjects, oral doses 5 mg to 200 mg) was “No clinical noteworthy changes” and the adverse events reported ([7]; all studies, oral doses 5 mg to 200 mg) was “typically GI-related”. For the same compound, the “changes in ECG measurements” value ([7]; clinical studies to date) was “no noteworthy changes” and the binding affinity [8] was “sites (51%)”.
